Assay results published in ChEMBL document CHEMBL5247653, “Discovery of Clinical Candidate ACT-777991, a Potent CXCR3 Antagonist for Antigen-Driven and Inflammatory Pathologies” (J Med Chem, 2023).
Values after ≈ are worked out from the molar mass of the structure shown. Active and inactive are the calls of the source. No cut-off for these calls is given here.

Columns and labels:
[1] = target: C-C chemokine receptor type 7 (Homo sapiens) (UniProt P32248); test: Binding affinity to CCR7 (unknown origin) at 10 uM by radioligand binding assay
[2] = target: C-X-C chemokine receptor type 5 (Homo sapiens) (UniProt P32302); test: Binding affinity to CXCR5 (unknown origin) at 10 uM by radioligand binding assay
[3] = target: T1, C-X-C chemokine receptor type 3 (Mus musculus) (UniProt O88410); test: In vivo antagonist activity at CXCR3 in LPS-induced DBA/1 mouse model assessed as reduction in mouse CXCL10-mediated chemotaxis in CD8+ T cells at 0.006 microg/g, po bid preincubated for 3 days followed by LPS stimulation for 30 mins and measured after 3 days by flow cytometry; assay type: functional, organism-based; parameters: scale not given: the % may be the effect or the level left; details: T-cell, dose 0.006 µg/g, time 6.0 day
T1 sequence (whole entry): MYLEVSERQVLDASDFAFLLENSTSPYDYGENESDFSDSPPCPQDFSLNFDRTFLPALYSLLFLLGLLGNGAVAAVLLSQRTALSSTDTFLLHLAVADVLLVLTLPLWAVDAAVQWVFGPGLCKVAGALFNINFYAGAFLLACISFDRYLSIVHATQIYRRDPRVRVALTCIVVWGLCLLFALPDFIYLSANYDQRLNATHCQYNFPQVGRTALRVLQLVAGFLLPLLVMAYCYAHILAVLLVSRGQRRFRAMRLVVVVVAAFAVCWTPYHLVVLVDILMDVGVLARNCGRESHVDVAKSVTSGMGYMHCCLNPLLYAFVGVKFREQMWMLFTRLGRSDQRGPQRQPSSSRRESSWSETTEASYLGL

[4] = Metabolic stability in human liver microsomes assessed as intrinsic clearance at 1 uM and measured upto 15 mins in presence of NADPH regenerating system by LC-MS/MS analysis; assay type: ADME, Microsome; details: read-out: CLH
[5] = Induction of CYP3A4 mRNA upregulation in human hepatocytes upto 10 uM; assay type: ADME, cell-based, Hepatocyte
[6] = Metabolic stability in rat hepatocyte assessed as M2 metabolite formation at 1 uM and measured upto 15 mins in presence of NADPH regenerating system by LC-MS/MS analysis; assay type: ADME, cell-based; details: hepatocytes, 0.25 h
[7] = target: T2, C-X-C chemokine receptor type 3 (Mus musculus, UniProt O88410); test: Antagonist activity at mouse CXCR3 expressed in CHO-K1 cells assessed as reduction in CXCL11 induced calcium flux by FLIPR method; assay type: cell-based
T2 sequence (O88410 whole entry): T1 sequence (whole entry)

[8] = Glutathione reactivity assessed as GSH-adduct formation by dansyl-glutathione trapping assay; assay type: physicochemical
[9] = target: T3, Voltage-gated inwardly rectifying potassium channel KCNH2 (Homo sapiens, UniProt Q12809); test: (§1) Inhibition of human ERG K+ currents by GLP assay; assay type: toxicity
hERG (KCNH2) = hERG (KCNH2) (Homo sapiens, UniProt Q12809); test: as §1; assay type: toxicity; details: human
[10] = In vivo inhibition of hERG in iv dosed dog assessed as change in QRS interval; assay type: toxicity, organism-based, Canis lupus familiaris
[11] = Protein binding in human plasma assessed as fraction unbound at 20 ug/ml using 14C-labeled ligand by rapid equilibrium dialysis; assay type: ADME, cell-free; details: at 20 µg/mL
[12] = target: C-X-C chemokine receptor type 6 (Homo sapiens) (UniProt O00574); test: Binding affinity to CXCR6 (unknown origin) at 10 uM by radioligand binding assay
[13] = Unbound clearance in Wistar rat plasma at 0.5 mg/kg, iv; assay type: ADME, organism-based; details: in vivo
[14] = target: C3a anaphylatoxin chemotactic receptor (Homo sapiens) (UniProt Q16581); test: Binding affinity to C3aR1 (unknown origin) at 10 uM by radioligand binding assay
[15] = Cmax in LPS-induced DBA/1 mouse plasma at 0.006 microg/g, po bid preincubated for 3 days followed by LPS stimulation for 30 mins and measured after 72 hrs by flow cytometry; assay type: ADME, organism-based; parameters: dose 0.006 µg/g, time 6 day, route po; details: 0.006 µg/g
[16] = target: T4, C-X-C chemokine receptor type 3 (Homo sapiens, UniProt P49682); test: Antagonist activity at human CXCR3 expressed in CHO-K1 cells assessed as reduction in CXCL11 induced calcium flux by FLIPR method; assay type: cell-based
T4 sequence (P49682 whole entry): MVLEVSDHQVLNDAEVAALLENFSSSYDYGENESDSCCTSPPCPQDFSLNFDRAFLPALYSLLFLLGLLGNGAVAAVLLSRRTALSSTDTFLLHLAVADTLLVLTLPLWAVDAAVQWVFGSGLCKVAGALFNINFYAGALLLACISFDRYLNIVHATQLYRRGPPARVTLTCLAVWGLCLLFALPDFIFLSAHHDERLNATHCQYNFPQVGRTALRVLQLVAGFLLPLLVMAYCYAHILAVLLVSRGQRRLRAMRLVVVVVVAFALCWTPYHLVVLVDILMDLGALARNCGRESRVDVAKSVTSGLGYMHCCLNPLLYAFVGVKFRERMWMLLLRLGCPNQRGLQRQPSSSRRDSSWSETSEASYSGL

[17] = target: T2, C-X-C chemokine receptor type 3; test: Antagonist activity at CXCR3 in DBA/1 mouse whole blood assessed as receptor internalization incubated for 30 mins in presence of CXCL10 by flow cytometric analysis; assay type: tissue-based
[18] = Total clearance in Beagle dog plasma at 1 mg/kg, iv; assay type: ADME, organism-based, Canis lupus familiaris
[19] = target: T3, Voltage-gated inwardly rectifying potassium channel KCNH2; test: Inhibition of human ERG stably expressed in CHO cells at -80 mV holding voltage by automated QPatch electrophysiological assay; assay type: toxicity, cell-based
Mus musculus [20] = test: Antiinflammatory activity against LPS-induced DBA/1 mouse model assessed as reduction in CXCR3+ CD8+ T cells infiltration into BAL at 0.02 microg/g, po preincubated for 3 days followed by LPS stimulation for 30 mins and measured after 3 days by flow cytometry; assay type: functional, T-cell; parameters: scale not given: the % may be the effect or the level left; details: dose 0.02 µg/g, time 6 day
[21] = Apparent permeability across apical to basolateral side in dog MDCK-II cells; assay type: ADME, cell-based, Canis lupus familiaris
[22] = Clearance in Wistar rat at 3 mg/kg,iv or 3 mg/kg, po; assay type: ADME, organism-based; details: in vivo
[23] = Oral bioavailability in Cynomolgus monkey at 1.25 mg/kg; assay type: ADME, organism-based, Macaca fascicularis; details: in vivo
Mus musculus [24] = test: Antiinflammatory activity against LPS-induced DBA/1 mouse model assessed as reduction in CXCR3+ CD8+ T cells infiltration into BAL at 0.006 to 2 microg/g, po bid preincubated for 3 days followed by LPS stimulation for 30 mins and measured after 3 days by flow cytometry; assay type: functional, organism-based; details: T-cell, dose 0.006-2 µg/g, time 6.0 day
[25] = Metabolic stability in human hepatocyte assessed as M4 metabolite formation at 1 uM and measured upto 15 mins in presence of NADPH regenerating system by LC-MS/MS analysis; assay type: ADME, cell-based; details: hepatocytes, 0.25 h
[26] = Metabolic stability in rat liver microsomes assessed as M3 metabolite formation at 1 uM and measured upto 15 mins in presence of NADPH regenerating system by LC-MS/MS analysis; assay type: ADME, Microsome; details: 0.25 h
[27] = target: T1, C-X-C chemokine receptor type 3 (Mus musculus); test: In vivo antagonist activity at CXCR3 in LPS-induced DBA/1 mouse model assessed as reduction in mouse CXCL10-mediated chemotaxis in CD8+ T cells at 0.06 microg/g, po bid preincubated for 3 days followed by LPS stimulation for 30 mins and measured after 3 days by flow cytometry; assay type: functional, organism-based; parameters: scale not given: the % may be the effect or the level left; details: T-cell, dose 0.06 µg/g, time 6.0 day
[28] = Metabolic stability in rat hepatocytes assessed as intrinsic clearance per 10^6 cells at 1 uM by LC-MS/MS analysis; assay type: ADME, cell-based, Hepatocyte

T3 sequence (Q12809 whole entry): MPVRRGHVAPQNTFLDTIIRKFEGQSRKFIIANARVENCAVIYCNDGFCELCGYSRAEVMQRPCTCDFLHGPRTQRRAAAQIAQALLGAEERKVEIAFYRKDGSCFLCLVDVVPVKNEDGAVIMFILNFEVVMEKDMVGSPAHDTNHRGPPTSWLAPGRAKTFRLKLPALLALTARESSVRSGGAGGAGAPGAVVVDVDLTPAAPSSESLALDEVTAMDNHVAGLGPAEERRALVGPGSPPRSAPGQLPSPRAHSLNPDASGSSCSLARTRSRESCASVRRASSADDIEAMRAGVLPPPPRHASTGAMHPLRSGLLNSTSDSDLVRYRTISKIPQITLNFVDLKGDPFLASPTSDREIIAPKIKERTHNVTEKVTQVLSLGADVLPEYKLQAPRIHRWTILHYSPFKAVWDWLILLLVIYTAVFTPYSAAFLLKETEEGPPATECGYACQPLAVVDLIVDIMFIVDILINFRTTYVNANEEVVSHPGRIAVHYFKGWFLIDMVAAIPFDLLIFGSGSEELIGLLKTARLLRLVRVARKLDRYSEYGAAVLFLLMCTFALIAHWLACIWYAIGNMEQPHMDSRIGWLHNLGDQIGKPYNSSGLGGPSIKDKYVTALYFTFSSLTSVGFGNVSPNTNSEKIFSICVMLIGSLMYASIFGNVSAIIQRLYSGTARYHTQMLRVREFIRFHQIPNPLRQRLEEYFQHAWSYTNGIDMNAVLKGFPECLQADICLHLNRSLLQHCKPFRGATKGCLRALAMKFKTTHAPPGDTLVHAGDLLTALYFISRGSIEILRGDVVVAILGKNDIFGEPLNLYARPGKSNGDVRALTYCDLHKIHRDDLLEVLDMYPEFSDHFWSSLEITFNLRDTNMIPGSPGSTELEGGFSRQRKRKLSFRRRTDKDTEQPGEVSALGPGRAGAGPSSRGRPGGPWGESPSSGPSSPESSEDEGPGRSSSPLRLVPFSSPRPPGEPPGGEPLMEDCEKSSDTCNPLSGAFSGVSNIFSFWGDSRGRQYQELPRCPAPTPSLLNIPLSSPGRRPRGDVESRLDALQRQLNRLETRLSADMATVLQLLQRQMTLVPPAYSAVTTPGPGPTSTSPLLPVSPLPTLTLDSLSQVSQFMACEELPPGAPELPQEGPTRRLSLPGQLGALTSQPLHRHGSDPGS
Chain of C3a anaphylatoxin chemotactic receptor (Homo sapiens) (Q16581 whole entry): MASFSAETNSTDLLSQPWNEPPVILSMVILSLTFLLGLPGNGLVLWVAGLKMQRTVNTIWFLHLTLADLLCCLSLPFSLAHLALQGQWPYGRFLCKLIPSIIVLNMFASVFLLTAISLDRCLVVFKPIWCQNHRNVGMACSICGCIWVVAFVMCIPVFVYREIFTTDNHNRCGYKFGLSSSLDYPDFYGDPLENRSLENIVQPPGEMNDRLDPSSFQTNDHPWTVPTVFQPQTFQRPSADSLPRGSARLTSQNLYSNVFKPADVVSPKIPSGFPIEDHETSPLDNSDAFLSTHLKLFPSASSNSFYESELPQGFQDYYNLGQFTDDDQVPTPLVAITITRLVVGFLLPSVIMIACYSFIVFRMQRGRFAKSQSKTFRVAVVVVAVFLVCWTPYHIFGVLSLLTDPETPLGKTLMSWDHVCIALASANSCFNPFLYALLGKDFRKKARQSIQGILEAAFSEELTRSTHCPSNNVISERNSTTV
Chain of C-C chemokine receptor type 7 (Homo sapiens) (P32248 whole entry): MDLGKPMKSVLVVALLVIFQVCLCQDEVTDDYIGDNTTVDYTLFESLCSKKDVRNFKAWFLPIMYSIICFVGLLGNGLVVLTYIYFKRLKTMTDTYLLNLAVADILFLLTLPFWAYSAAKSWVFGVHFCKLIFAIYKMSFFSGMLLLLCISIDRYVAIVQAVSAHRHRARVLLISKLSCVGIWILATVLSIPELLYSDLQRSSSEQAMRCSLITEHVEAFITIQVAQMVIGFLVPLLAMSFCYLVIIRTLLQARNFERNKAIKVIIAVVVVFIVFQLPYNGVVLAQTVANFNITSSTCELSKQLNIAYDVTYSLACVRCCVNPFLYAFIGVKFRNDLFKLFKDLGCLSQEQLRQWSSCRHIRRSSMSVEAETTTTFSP
Chain of C-X-C chemokine receptor type 5 (Homo sapiens) (P32302 whole entry): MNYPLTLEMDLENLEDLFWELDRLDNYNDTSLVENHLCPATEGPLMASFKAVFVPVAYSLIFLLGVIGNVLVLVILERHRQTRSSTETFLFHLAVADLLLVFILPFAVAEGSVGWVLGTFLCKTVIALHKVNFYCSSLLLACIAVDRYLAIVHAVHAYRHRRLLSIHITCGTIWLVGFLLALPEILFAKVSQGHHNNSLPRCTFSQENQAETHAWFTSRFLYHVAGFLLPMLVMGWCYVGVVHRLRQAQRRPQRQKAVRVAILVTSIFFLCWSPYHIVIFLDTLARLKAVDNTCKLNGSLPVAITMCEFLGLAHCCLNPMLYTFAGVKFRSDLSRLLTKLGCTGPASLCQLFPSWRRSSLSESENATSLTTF
Chain of hERG (KCNH2) (Q12809 whole entry): as the sequence (Q12809 whole entry) above
Chain of C-X-C chemokine receptor type 6 (Homo sapiens) (O00574 whole entry, looked up): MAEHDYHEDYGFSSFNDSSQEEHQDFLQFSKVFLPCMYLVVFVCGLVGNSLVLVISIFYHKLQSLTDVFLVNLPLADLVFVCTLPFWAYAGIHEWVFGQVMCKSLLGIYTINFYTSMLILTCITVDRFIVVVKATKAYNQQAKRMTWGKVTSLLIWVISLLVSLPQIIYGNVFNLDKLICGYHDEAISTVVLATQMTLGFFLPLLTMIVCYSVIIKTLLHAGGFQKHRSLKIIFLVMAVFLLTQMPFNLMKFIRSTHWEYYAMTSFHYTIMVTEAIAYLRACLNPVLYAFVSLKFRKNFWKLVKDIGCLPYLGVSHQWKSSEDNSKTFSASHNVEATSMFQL

Activity [1]: inactive
Activity [2]: inactive
Activity [3]: 35%
microsomal CLint at 1 µM [4]: < 10 µL/min/mg
Activity [5]: Not Active
Stability [6]: Unstable
IC50 [7]: 4.4 nM
Activity [8]: Not Active
fraction unbound at 20 ug/ml [11]: 0.4
Activity [12]: inactive
CL free [13]: 156 mL/min/kg
Cmax [15]: 42 ng/mL
IC50 [16]: 5.3 nM
IC50 [17]: 161 nM
clearance [18]: 5 mL/min/kg
Papp A→B [21]: 1.5 ×10⁻⁶ cm/s
clearance [22]: 9.5 mL/min/kg
bioavailability [23]: 92%
Stability [25]: Unstable
Stability [26]: Unstable
Activity [27]: 55%
CLH [28]: < 2 µL/min/mg
SMILES: Cc1ncn(CC(=O)N2CCN(c3sc(C(F)(F)F)nc3-c3cnc(C(F)(F)F)nc3)C[C@H]2CCO)n1
IC50 [9]: 15.4 µM
IC20 (hERG (KCNH2)): 3 µg/mL (≈ 5.45 µM)
inhibition (INH) [10]: Non-Toxic
Activity [14]: inactive
IC50 [19]: 26 µM
Activity (Mus musculus [20]): 70%
Activity (Mus musculus [24]): Dose-Dependent Effect
